The source of these data is patent EP2582674B1 (Cymabay Therapeutics, Inc., priority 2010, dated 2011).

As a reminder, the EC50 is the midpoint of the concentration-response curve.

The structures appear in SMILES notation. Bounds are passed on as bounds.

The target in one experiment is T1, human GPR120 (Homo sapiens, UniProt Q5NUL3).
T1 construct: host or cells: HEK293 cells co-expressing Gqi5
T1 sequence (Q5NUL3 1-361): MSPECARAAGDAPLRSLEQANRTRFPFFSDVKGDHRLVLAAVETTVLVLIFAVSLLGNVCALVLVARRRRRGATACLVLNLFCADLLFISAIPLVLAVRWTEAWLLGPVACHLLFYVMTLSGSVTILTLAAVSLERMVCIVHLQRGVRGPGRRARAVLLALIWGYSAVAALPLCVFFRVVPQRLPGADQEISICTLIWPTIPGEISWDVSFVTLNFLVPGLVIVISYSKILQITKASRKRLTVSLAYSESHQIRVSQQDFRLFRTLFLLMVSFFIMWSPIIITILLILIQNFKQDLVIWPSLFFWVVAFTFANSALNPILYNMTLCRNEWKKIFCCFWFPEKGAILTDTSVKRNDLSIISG
The experiment can be described thus: Intracellular Ca2+ assay in human GPR120 stable cell line (FLIPR Calcium 4 dye, Flexstation). It is filed as cell-based. The note with it: % activity at 2.5 µM compared to the maximal activity of the compound of Example 25 at 2.5 µM (=100%); HEK293 cells co-expressing Gqi5.
In the case of `CC1(C)Cc2cc(F)cc(COc3c(F)cc(CC4CC4C(=O)O)cc3F)c2O1` (centres unmarked) [Example 184, 2-(3,5-difluoro-4-((5-fluoro-2,2-dimethyl-2,3-dihydrobenzofuran-7-yl)methoxy)benzyl)cyclopropanecarboxylic acid], the “% Activity (Ex. 25 Reference Compound)” value was 97.04%.

The experiment is the same for the next values; noted with them: HEK293, % activity at 2.5 µM compared to the maximal activity of the compound of Example 25 at 2.5 µM (=100%); HEK293 cells co-expressing Gqi5; read-out: % Activity (Ex. 25 Reference Compound).
For `CC1(C)Cc2cc(Cl)cc(COc3ccc4c(c3)CC[C@@H]4CC(=O)O)c2O1` [Example 179, (R)-2-(5-((5-chloro-2,2-dimethyl-2,3-dihydrobenzofuran-7-yl)methoxy)-2,3-dihydro-1H-inden-1-yl)acetic acid], the activity at 2.5 µM amounted to 105%. Take `CC(CC(=O)O)Cc1ccc(OCc2cc(F)cc3c2OC(C)(C)C3)cc1` (centres unmarked) [Example 182, 4-(4-((5-fluoro-2,2-dimethyl-2,3-dihydrobenzofuran-7-yl)methoxy)phenyl)-3-methylbutanoic acid]: the activity at 2.5 µM is 98.4%. Still for that read-out and setting: with `CC1(C)Cc2c(COc3ccc4c(c3)CC[C@@H]4CC(=O)O)cc(F)cc2O1` [Example 188, (R)-2-(5-((6-fluoro-2,2-dimethyl-2,3-dihydrobenzofuran-4-yl)methoxy)-2,3-dihydro-1H-inden-1-yl)acetic acid] the figure was 104%; with `COc1cc(OCc2cc(Cl)cc3c2OC2(CCCC2)C3)ccc1CCC(=O)O` [Example 194, 3-(4-((5-chloro-3H-spiro[benzofuran-2,1'-cyclopentane]-7-yl)methoxy)-2-methoxyphenyl)propanoic acid], 148%. For `CC1(C)Cc2cc(F)cc(COc3cc(Cl)c(CCC(=O)O)c(Cl)c3)c2O1` [Example 197, 3-(2,6-dichloro-4-((5-fluoro-2,2-dimethyl-2,3-dihydrobenzofuran-7-yl)methoxy)phenyl)propanoic acid], the activity at 2.5 µM is 151%. On the same count and under the same terms, with `Cc1cc(OCc2cc(F)cc3c2OC(C)(C)C3)c(C)cc1CCC(=O)O` [Example 206, 3-(4-((5-fluoro-2,2-dimethyl-2,3-dihydrobenzofuran-7-yl)methoxy)-2,5-dimethylphenyl)propanoic acid] the figure was 111%; with `Cc1cc(OCc2cc(F)cc3c2OC(C)(C)C3)c(F)cc1CCC(=O)O` [Example 214, 3-(5-fluoro-4-((5-fluoro-2,2-dimethyl-2,3-dihydrobenzofuran-7-yl)methoxy)-2-methylphenyl)propanoic acid], 143%.

For `CCc1c(CCC(=O)O)ccc(OCc2cc(F)cc3c2OC(C)(C)C3)c1F` [Example 216, 3-(2-ethyl-3-fluoro-4-((5-fluoro-2,2-dimethyl-2,3-dihydrobenzofuran-7-yl)methoxy)phenyl)propanoic acid], the activity at 2.5 µM worked out at 144%. Regarding `CC1(C)Cc2cc(F)cc(COc3ccc(CCC(=O)O)c4c3CCCC4)c2O1` [Example 218, 3-(4-((5-fluoro-2,2-dimethyl-2,3-dihydrobenzofuran-7-yl)methoxy)-5,6,7,8-tetrahydronaphthalen-1-yl)propanoic acid], the activity at 2.5 µM is 114%.

For the compound `CCc1cc(OCc2cc(F)cc3c2OC(C)(C)C3)c(F)cc1CCC(=O)O` [Example 220, 3-(2-ethyl-5-fluoro-4-((5-fluoro-2,2-dimethyl-2,3-dihydrobenzofuran-7-yl)methoxy)phenyl)propanoic acid], the activity at 2.5 µM is 116%. Same read-out and setting: the figure for `[2H]C([2H])(Oc1ccc(CCC(=O)O)c(CC)c1F)c1cc(F)cc2c1OC(C)(C)C2` [Example 228, 3-(4-(dideuterio(5-fluoro-2,2-dimethyl-2,3-dihydrobenzofuran-7-yl)methoxy)-3-fluoro-2-ethylphenyl)propanoic acid] is 119%; for `[2H]C([2H])(Oc1ccc(CC(C)C(=O)O)cc1F)c1cc(F)cc2c1OC(C)(C)C2` (centres unmarked) [Example 230, 3-(4-(dideuterio(5-fluoro-2,2-dimethyl-2,3-dihydrobenzofuran-7-yl)methoxy)-3-fluorophenyl)-2-methylpropanoic acid] it is 86.2%. `[2H]C([2H])(Oc1ccc(CC(C)C(=O)O)cc1C(F)(F)F)c1cc(F)cc2c1OC(C)(C)C2` (centres unmarked) [Example 231, 3-(4-(dideuterio(5-fluoro-2,2-dimethyl-2,3-dihydrobenzofuran-7-yl)methoxy)-3-(trifluoromethyl)phenyl)-2-methylpropanoic acid]: the activity at 2.5 µM was determined as 101%. With `[2H]C([2H])(C(=O)O)C([2H])([2H])c1ccc(OCc2cc(Cl)cc3c2OC(C)(C)C3)c(F)c1` [Example 241, 3-(4-((5-chloro-2,2-dimethyl-2,3-dihydrobenzofuran-7-yl)methoxy)-3-fluorophenyl)-2,2,3,3-tetradeuteriopropanoic acid], the activity at 2.5 µM is 160%. As for `[2H]C([2H])(C(=O)O)C([2H])([2H])c1ccc(OCc2cc(F)cc3c2OC(C)(C)C3)c(F)c1CC` [Example 243, 3-(2-ethyl-3-fluoro-4-((5-fluoro-2,2-dimethyl-2,3-dihydrobenzofuran-7-yl)methoxy)phenyl)-2,2,3,3-tetradeuteriopropanoic acid], the activity at 2.5 µM turned out to be 155%. On the same count and under the same terms, with `CC1(C)Cc2cc(Cl)cc(COc3ccccc3CCC(=O)O)c2O1` [Example 250, 3-(2-((5-chloro-2,2-dimethyl-2,3-dihydrobenzofuran-7-yl)methoxy)phenyl)propanoic acid] the figure was 10.2%; with `CC(Cc1cccc(OCc2cc(Cl)cc3c2OC(C)(C)C3)c1)C(=O)O` (centres unmarked) [Example 251, 3-(3-((5-chloro-2,2-dimethyl-2,3-dihydrobenzofuran-7-yl)methoxy)phenyl)-2-methylpropanoic acid], 61.1%. Take `Cc1cc(CCC(=O)O)c(C)c(C)c1OCc1cc(F)cc2c1OC(C)(C)C2` [Example 254, 3-(4-((5-fluoro-2,2-dimethyl-2,3-dihydrobenzofuran-7-yl)methoxy)-2,3,5-trimethylphenyl) propanoic acid]: the activity at 2.5 µM was 146%. Still for that read-out and setting: the figure for `CC(C)Oc1ccc(Cl)cc1COc1cc2c(cc1F)C(CC(=O)O)CC2` (centres unmarked) [Example 257, 2-(5-((5-chloro-2-isopropoxybenzyl)oxy)-6-fluoro-2,3-dihydro-1H-inden-1-yl)acetic acid] is 125%.

For `CC(C)Oc1ccc(Cl)cc1COc1ccc2c(c1)CCC2CC(=O)O` (centres unmarked) [Example 258, 2-(5-((5-chloro-2-isopropoxybenzyl)oxy)-2,3-dihydro-1H-inden-1-yl)acetic acid], the activity at 2.5 µM turned out to be 140%. Same read-out and setting: the figure for `CC(C)Oc1ncccc1COc1ccc2c(c1)CCC2CC(=O)O` (centres unmarked) [Example 259, 2-(5-((2-isopropoxypyridin-3-yl)methoxy)-2,3-dihydro-1H-inden-1-yl)acetic acid] is 118%; for `CC(Cc1cc(F)c(OCc2cccc3cn[nH]c23)c(F)c1)C(=O)O` (centres unmarked) [Example 260, 3-(4-((1H-indazol-7-yl)methoxy)-3,5-difluorophenyl)-2-methylpropanoic acid] it is 16.7%. The same measure, in the same setting: the figure for `Cc1nc2cccc(COc3c(F)cc(CC(C)C(=O)O)cc3F)c2o1` (centres unmarked) [Example 261, 3-(3,5-difluoro-4-((2-methylbenzo[d]oxazol-7-yl)methoxy)phenyl)-2-methylpropanoic acid] is 109%; for `CC1(C)Cc2cc(F)cc(COc3ccc4c(CC(=O)O)coc4c3)c2O1` [Example 262, 2-(6-((5-fluoro-2,2-dimethyl-2,3-dihydrobenzofuran-7-yl)methoxy)benzofuran-3-yl)acetic acid] it is 137%.

On to `CC1(C)Cc2cc(F)cc(COc3ccc4c(CC(=O)O)cc(=O)oc4c3)c2O1` [Example 263, 2-(7-((5-fluoro-2,2-dimethyl-2,3-dihydrobenzofuran-7-yl)methoxy)-2-oxo-2H-chromen-4-yl)acetic acid], for which the activity at 2.5 µM is 5.98%. Same read-out and setting: the figure for `CC(Cc1ccc(OCc2cc(F)cc3c2OC(C)(C)C3)cc1)C(=O)NO` (centres unmarked) [Example 264, 3-(4-((5-fluoro-2,2-dimethyl-2,3-dihydrobenzofuran-7-yl)methoxy)phenyl)-N-hydroxy-2-methylpropanamide] is 110%; for `CC(C)C(CC(=O)O)c1ccc(OCc2cc(Cl)cc3c2OC(C)(C)C3)cc1` (centres unmarked) [Example 266, 3-(4-((5-chloro-2,2-dimethyl-2,3-dihydrobenzofuran-7-yl)methoxy)phenyl)-4-methylpentanoic acid] it is 42.7%. Still for that read-out and setting: with `Cc1c(CCC(=O)O)ccc(OCc2cc(Cl)cc3c2CC(C)(C)O3)c1C` [Example 267, 3-(4-((6-chloro-2,2-dimethyl-2,3-dihydrobenzofuran-4-yl)methoxy)-2,3-dimethylphenyl)propanoic acid] the figure was 141%.

The experiment is the same for the next values; noted with them: eight concentrations from 0.00001 to 20 µM; changes (Max-Min) of fluorescence intensity.
For the compound `CC(CC(=O)O)Cc1ccc(OCc2cc(Cl)cc3c2OC(C)(C)C3)cc1` (centres unmarked) [Example 183, 4-(4-((5-chloro-2,2-dimethyl-2,3-dihydrobenzofuran-7-yl)methoxy)phenyl)-3-methylbutanoic acid], the EC50 lay within 1 to 10 µM. Same read-out and setting: the figure for `CC1(C)Cc2cc(Cl)cc(COc3ccccc3CCC(=O)O)c2O1` [Example 250, 3-(2-((5-chloro-2,2-dimethyl-2,3-dihydrobenzofuran-7-yl)methoxy)phenyl)propanoic acid] is > 10 µM. On the same count and under the same terms, with `CC(Cc1cccc(OCc2cc(Cl)cc3c2OC(C)(C)C3)c1)C(=O)O` (centres unmarked) [Example 251, 3-(3-((5-chloro-2,2-dimethyl-2,3-dihydrobenzofuran-7-yl)methoxy)phenyl)-2-methylpropanoic acid] the figure was 1 to 10 µM.
